22 compounds from ChEMBL document CHEMBL4311967, “Continued exploration and tail approach synthesis of benzenesulfonamides containing triazole and dual triazole moieties as carbonic anhydrase I, II, IV and IX inhibitors” (Eur J Med Chem, 2019) can be followed below.

Usually Ki stands for the equilibrium dissociation constant of an inhibitor or competing ligand from its target.

The target in the assay is Carbonic anhydrase 9 (Homo sapiens, UniProt Q16790). The assay is described as follows: Inhibition of human carbonic anhydrase 9 assessed as reduction in CO2 hydration incubated for 1 hr by phenol red staining-based stopped flow assay.
`Cc1c(-c2nnc(SCC(=O)c3ccc(Br)cc3)[nH]2)nnn1-c1ccc(S(N)(=O)=O)cc1`: the Ki is 2.83 µM.
Under `Cc1c(-c2n[nH]c(=S)[nH]2)nnn1-c1ccc(S(N)(=O)=O)cc1` stands 1.24 µM.
The value for `Cc1c(-c2nnc(SCC(=O)c3cccc(Br)c3)[nH]2)nnn1-c1ccc(S(N)(=O)=O)cc1` was 1.47 µM; that for `Cc1c(C(=O)NNC(N)=S)nnn1-c1ccc(S(N)(=O)=O)cc1` was 2.97 µM; that for `Cc1c(-c2nnc(SCC(=O)c3ccc(-c4ccccc4)cc3)[nH]2)nnn1-c1ccc(S(N)(=O)=O)cc1` was 0.226 µM.
Under `NS(=O)(=O)c1ccc(-n2nnc(-c3nnc(SCC(=O)c4ccc(Cl)cc4)[nH]3)c2-c2ccccc2)cc1` stands 0.477 µM; under `Cc1c(-c2nnc(SCC(=O)c3ccc([N+](=O)[O-])cc3)[nH]2)nnn1-c1ccc(S(N)(=O)=O)cc1`, 3.06 µM; under `NS(=O)(=O)c1ccc(-n2nnc(-c3nnc(SCC(=O)c4ccc([N+](=O)[O-])cc4)[nH]3)c2-c2ccccc2)cc1`, 0.204 µM.
With `NS(=O)(=O)c1ccc(-n2nnc(-c3nnc(SCC(=O)c4cccc([N+](=O)[O-])c4)[nH]3)c2-c2ccccc2)cc1`, the Ki came to 0.192 µM.
Under `Cc1c(-c2nnc(SCC(=O)c3ccccc3)[nH]2)nnn1-c1ccc(S(N)(=O)=O)cc1` stands 3.2 µM; under `Cc1c(-c2nnc(SCC(=O)c3cccc([N+](=O)[O-])c3)[nH]2)nnn1-c1ccc(S(N)(=O)=O)cc1`, 2.43 µM; under `NS(=O)(=O)c1ccc(-n2nnc(-c3nnc(SCC(=O)c4ccc(F)cc4)[nH]3)c2-c2ccccc2)cc1`, 0.177 µM.
Under `NS(=O)(=O)c1ccc(-n2nnc(-c3nnc(SCC(=O)c4ccccc4)[nH]3)c2-c2ccccc2)cc1` stands 0.135 µM; under `NS(=O)(=O)c1ccc(-n2nnc(-c3nnc(SCC(=O)c4ccc(Br)cc4)[nH]3)c2-c2ccccc2)cc1`, 0.177 µM; under `NS(=O)(=O)c1ccc(-n2nnc(-c3n[nH]c(=S)[nH]3)c2-c2ccccc2)cc1`, 0.051 µM.
In the case of `Cc1c(-c2nnc(SCC(=O)c3ccc(Cl)cc3)[nH]2)nnn1-c1ccc(S(N)(=O)=O)cc1`, the Ki came to 3.19 µM.
With `Cc1ccc(C(=O)CSc2nnc(-c3nnn(-c4ccc(S(N)(=O)=O)cc4)c3-c3ccccc3)[nH]2)cc1`, the Ki turned out to be 0.294 µM.
Under `NS(=O)(=O)c1ccc(-n2nnc(-c3nnc(SCC(=O)c4ccc(-c5ccccc5)cc4)[nH]3)c2-c2ccccc2)cc1` stands 0.734 µM; under `NC(=S)NNC(=O)c1nnn(-c2ccc(S(N)(=O)=O)cc2)c1-c1ccccc1`, 0.111 µM.
Take `Cc1ccc(C(=O)CSc2nnc(-c3nnn(-c4ccc(S(N)(=O)=O)cc4)c3C)[nH]2)cc1`: the Ki turned out to be 3.07 µM.
With `NS(=O)(=O)c1ccc(-n2nnc(-c3nnc(SCC(=O)c4cccc(Br)c4)[nH]3)c2-c2ccccc2)cc1`, the Ki came to 0.278 µM.
The value for `Cc1c(-c2nnc(SCC(=O)c3ccc(F)cc3)[nH]2)nnn1-c1ccc(S(N)(=O)=O)cc1` was 3.02 µM.
